Measurements from patent US5552156A, “Liposomal and micellular stabilization of camptothecin drugs” (Ohio State University, priority 1995, dated 1996).

Experiments:
Assay type in all cases: physicochemical
[1] = Fluorescence excitation and emission spectra of camptothecin drugs free in solution and bound to liposomes; details: for λMAX emission, DMPG: DMPG liposomes 0.29 M; for λMAX emission, DMPG / λMAX emission, PBS / λMAX emission, DMPC: pH 7.4, 37° C.; for λMAX emission, PBS: free in PBS; for Relative Fluorescence: in PBS, pH 7.4, at excitation and emission λMAX; for λMAX excitation: pH 7.4, 2 μM drug, PBS; for λMAX emission, DMPC: DMPC liposomes 0.29 M
Description: The camptothecin drugs are intrinsically intensely fluorescent. Fluorescence is associated with the extended conjugation of the quinoline ring system. The liposomes of Examples 1-7 were characterized for the presence of the camptothecin drugs, using excitation and emission spectrography, and fluorescence anisotropy.
Steady-state fluorescence measurements were obtained on a SLM Model 4800C. spectrofluorometer with a thermostated cuvette compartment. This instrument was interfaced with an IBM PS/2 model 55 SX computer. Excitation and emission spectra were recorded with an excitation resolution of 8 nm and an emission resolution of 4 nm. In all cases spectra were corrected for background fluorescence and scatter from unlabeled lipids or from solvents by subtraction of the spectrum of a blank. Steady-state fluorescence intensity measurements were made in the absence of polarizer. Steady-state anisotropy (a) measurements were determined with the instrument in the "T-format" for simultaneous measurement of two polarized intensities. The alignment of polarizers were checked routinely using a dilute suspension of 0.25 μm polystyrene microspheres from Polysciences, Inc, Warrington, Pa., in water; anisotropy values of >0.99 were obtained. The anisotropy was calculated from a=(Ivv -GlVH)/(Ivv +GIVH), where G-IVH /IHH and the subscripts refer to vertical and horizontal orientations of the excitation and emission polarizers, respectively.
Anisotropy measurements for camptothecin, camptothecin carboxylate sodium salt, and 10,11-methylenedioxycamptothecin were conducted using exciting light of 370 nm and 420 nm long wave pass filters on each emission channel in order to isolate the fluorescence signal from background scatter and signal. For topotecan a 400 nm excitation wavelength and a 500 nm emission filter were used and for 9-aminocamptothecin a 375 nm excitation and a wavelength 420 nm emission filter were used. For AMC and CMC, a 370 nm excitation wavelength and a 400 nm emission filter were used. For 10-hydroxycamptothecin 375 nm excitation wavelength 500 nm emission filter was used. Emission filters were obtained from Oriel Corp. Stamford, Conn. The combination of exciting light and emission filters allows one to adequately separate the fluorescence from the background signal. The contribution of background fluorescence, together with scattered light, was typically less than 1% of the total intensity. Since the lactone ring of the camptothecin drug undergoes hydrolysis in aqueous medium, all measurements were completed within the shortest possible time, less than 1 minute after mixing the drug stock solution with PBS or the liposomes. In each case, analysis was initiated immediately after mixing the drug stock solution with PBS or with the liposomes. All measurements were performed at 37° C. unless otherwise noted.
The relative fluorescence intensity of 1×10^-6 M of camptothecin free in PBS buffer at 37° C. is shown. The emission spectra of the camptothecin was recorded using exciting light of 370 nm.
An exciting light of 390 nm was used to record the emission spectra of topotecan. A decrease in the emission intensity is observed for topotecan associated with the DMPG liposome.
All spectra were recorded using camptothecin drug concentrations of 2
μM. The DMPC and DMPG concentrations were 0.29 M. Experiments were
conducted in PBS buffer at 37° C.
Also found in Table II is a relative index of the emission intensity levels from these camptothecin drugs in PBS at their respective excitation and emission λMAX.

[2] = Overall association constant by fluorescence anisotropy titration, DSPC liposomes; details: for overall association constant K, DSPC: DSPC (electroneutral, solid phase), PBS, 37° C.
Description: The concentrations of free camptothecin drugs and camptothecin drugs associated with liposomes were determined at various lipid concentrations. […] The titration was conducted at camptothecin drug concentration of 1×10^-6 M in PBS at 37° C. Anisotropy values at each lipid concentration were determined within less than 30 seconds following the addition of the camptothecin drugs to the liposome suspension. […] By varying the lipid concentration rather than varying the drug concentration, the problem of self-association phenomenon which occurs for camptothecin drugs concentrations in excess of 10 μM is avoided. Also, the well-known phenomenon known as inner filter effect which occurs using fluorescent material at high optical densities is a is avoided.

[3] = Overall association constant by fluorescence anisotropy titration, DMPC liposomes; details: for overall association constant K, DMPC: DMPC (electroneutral, fluid phase), PBS, 37° C.; for bound drug level, DMPC: DMPC liposomes, 0.29M lipid, estimated; for binding affinity for liposomes (ranking): each type of liposome
Description: While the spectral changes provide qualitative evidence that the camptothecin drugs bind the liposome membranes, fluorescence anisotropy titration, offers the most sensitive means for quantitatively assessing the extent of the binding. The fluorescence anisotropy titration was performed according to the method of Burke and Tritton, Biochemistry 24: 1768-1776 (1985).
The concentrations of free camptothecin drugs and camptothecin drugs associated with liposomes were determined at various lipid concentrations. All experiments were conducted in glass tubes pretreated with a silating agent, Surfacil, from Pearce Chemical, Rockford, Ill. The titration was conducted at camptothecin drug concentration of 1×10^-6 M in PBS at 37° C. Anisotropy values at each lipid concentration were determined within less than 30 seconds following the addition of the camptothecin drugs to the liposome suspension. The (a) values were determined for fixed drug concentration, typically 2 μM, while the lipid concentration was varied from 0 to 0.29M. By varying the lipid concentration rather than varying the drug concentration, the problem of self-association phenomenon which occurs for camptothecin drugs concentrations in excess of 10 μM is avoided. Also, the well-known phenomenon known as inner filter effect which occurs using fluorescent material at high optical densities is a is avoided.
Adsorption isotherms like those shown in FIGS. 4A and 4B were used to determine overall association constants for the camptothecin drugs. Overall association constants are defined as: […]
where [AB ] represents the concentration of the camptothecin drug bound to the vesicle membrane, [AF ] represents the concentration of free drug, and [L] represents the total lipid concentration in the liposome suspension. This equation is valid when the concentration of free lipid is approximately equal to the concentration of total lipid, that is, the concentration of free lipid is in great excess over the concentration of bound drug. Provided this concentration is satisfied, K may be determined from the inverse of the slope of a double reciprocal plot according to (Burke and Tritton, Biochemistry 24:1776, 1985). In such a plot, 1/bound fraction of the total camptothecin drug is plotted vs. 1/[lipid], with a y-intercept value of 1.
FIG. 6A is the double-reciprocal plot for the associations of CMC, camptothecin, camptothecin carboylate sodium salt and topotecan with DMPC at 37° C.
The stabilization of camptothecin drugs was determined using different lipids. Three types of lipids (and thus 3 types of membranes) were examined: fluid-phase and electroneutral L-α-dimyristoylphosphatidylcholine (DMPC); fluid-phase and negatively-charged L-α-dimyristoylphosphatidylglycerol (DMPG), and solid-phase and electroneutral L-α-distearoylphosphatidylcholine (DSPC). While DMPC and DMPG have identical chain length, the charge on their head groups differ. DMPC and DSPC have identical head groups, but DMPC has acyl chains having 14 carbons per chain, which are four carbons shorter than the DSPC, which has 18 carbons per chain. This difference of 4-carbon chain length results in DMPC being fluid-phase at 37° C. while DSPC is solid-phase. The 7 camptothecin drugs listed in Table III were combined with liposomes containing the above lipids.
FIGS. 4A and 4B show the extent of camptothecin drug binding to liposomes as a function of lipid concentration for DMPC and DMPG liposomes. DMPC liposomes were made as in Example 1, at lipid concentrations from 0 to 0.29M, using CMC, 10-hydroxycamptothecin, 10,11-methylenedioxy-camptothecin, topotecan, camptothecin, and camptothecin carboxylate sodium salt, as shown in FIG. 4B. DMPG liposomes were made as in Example 2, at lipid concentrations from 0 to 0.29M, using 9-chloro-10,11-methylenedioxycamptothecin CMC, 10,11-methylenedioxycamptothecin, camptothecin, and topotecan, 9-aminocamptothecin, as shown in FIG. 4A. […]

| Compound | λMAX emission, DMPG [1] [nm] | λMAX emission, PBS [1] [nm] | Relative Fluorescence [1] | λMAX excitation ([1]; 37° C.) [nm] | overall association constant K, DSPC [2] [M⁻¹] | overall association constant K, DMPC [3] [M⁻¹] | bound drug level, DMPC [3] [%] | binding affinity for liposomes (ranking) [3] | shifting in the emission spectrum with DMPG liposomes ([1]; 1 μM, DMPG liposomes) | λMAX emission, DMPC [1] [nm] | binding preference for DSPC liposomes over DMPC liposomes ([2]; dspc over dmpc liposomes) | reduced propensity to bind electroneutral liposome membranes relative to CMC ([3]; DMPC) | spectral shift on association with DMPC liposomes ([1]; DMPC, relative to free drug) | blue shift of emission λmax on binding DMPG liposomes ([1]; relative to free camptothecin, 1×10^-6 M, 37° C.) | binding preference for DSPC liposomes over DMPC liposomes ([2]; solid-phase DSPC over fluid-phase DMPC) |
| --- | --- | --- | --- | --- | --- | --- | --- | --- | --- | --- | --- | --- | --- | --- | --- |
| CCC1(O)C(=O)OCc2c1cc1n(c2=O)Cc2cc3c(Cl)c4c(cc3nc2-1)OCO4 (stereo not drawn) [9-chloro-10,11-methylenedioxycamptothecin] | 417 | 410 | 1 | 394 | 500 | 400 | 99 | highest binding affinity for each type of liposome | – | – | – | – | – | – | – |
| CC[C@@]1(O)C(=O)OCc2c1cc1n(c2=O)Cc2cc3c(CN(C)C)c(O)ccc3nc2-1 [topotecan] | 533 | 537 | 1 | 410 | – | 10 | 74 | lowest binding affinity for liposomes | Only a slight shifting in the emission spectrum | 538 | 5 -fold | 40 -fold | – | – | – |
| CC[C@@]1(O)C(=O)OCc2c1cc1n(c2=O)Cc2cc3ccccc3nc2-1 [camptothecin] | 422 | 438 | 1 | 366 | 300 | – | 97 | intermediate binding affinities | – | 433 | – | – | about 5 nm | about 16 nm | 3 -fold |
| CCC1(O)C(=O)OCc2c1cc1n(c2=O)Cc2cc3cc4c(cc3nc2-1)OCO4 (stereo not drawn) [10,11-methylenedioxycamptothecin] | 408 | 410 | 1 | 395 | – | – | – | intermediate binding affinities | – | 408 | – | – | – | – | – |
| CCC1(O)C(=O)OCc2c1cc1n(c2=O)Cc2cc3cc(O)ccc3nc2-1 (stereo not drawn) [10-hydroxycamptothecin] | 550 | 561 | 0.5 | 392 | – | 75 | – | – | – | 558 | – | – | – | – | – |
